Here are results for one molecule from patent publication US10363245B2, “Methods for treating CNS lesions” (THE BOARD OF REGENTS OF THE UNIVERSITY OF TEXAS SYSTEM, priority 2017, dated 2019).

For data set [1], the system named is MS patients. Put plainly: Stage 1B dose-escalation study: twice daily oral ACZ, cerebral blood flow by pCASL MRI, DTI and T2 relaxometry.
In a further data set the test system is healthy controls. Particulars: historical reports; cited from earlier work.
Data set [2] concerns MS patients. Put plainly: Stage 1A clinical study: single 1000 mg IV ACZ bolus, cerebral blood flow by pCASL MRI.
Setting [3] is: Subj 001, oral 1000 mg BID for 2 weeks, versus baseline.

In the case of `CC(=O)Nc1nnc(S(N)(=O)=O)s1` [ACZ, acetazolamide], in the data set on MS patients [1] (setting [3]), the “CBF in the region with the larger T2 to T1 mismatch (qualitative pCASL)” value is reported as “increased”; the “qualitative DTI and T2 relaxometry measures” value was “changed little”. For the same molecule, in the data set with MS patients [1] (oral, 1000 mg twice daily), the potential for tachyphylaxis entry is “limited if any potential for tachyphylaxis”; the “sustained increases in global CBF” value is 10-25%; the “tolerability of oral ACZ” value is listed as “well tolerated, with minimal reported adverse events”. The “time for cerebral blood flow (CBF) to return near baseline” value in the data set with healthy controls was at most 60 min. Moreover, the “time for global CBF to return near baseline” value in the data set on MS patients [2] (after IV ACZ, MS patients) came out at 120 min. Further, in the data set with MS patients [2] (following IV ACZ), the “change in global cerebral perfusion (pCASL)” value is on record as “Rapid increases”. Further, the “duration of increases in CBF above baseline” value in the data set on MS patients [2] (single 1000 mg IV bolus, regardless of region) is on record as “up to 180 minutes”. Moreover, in the data set on MS patients [2] (single bolus of IV ACZ, five MS patients), the “tolerability of single IV bolus” value was “generally well tolerated without serious AEs”.
